Experimental data reported in patent US8822502B2, “Insecticidal compounds” (Syngenta Crop Protection LLC, priority 2008, dated 2014).

Columns and labels:
Assay type in all cases: in vivo
Spodoptera littoralis = Spodoptera littoralis cotton leaf disc spray test; details: foliar, 72 h, application rate 200 ppm, sprayed cotton leaf discs, L1 larvae, 3 days after treatment, mortality, feeding behavior, growth regulation
Source text: Spodoptera Littoralis (Egyptian Cotton Leafworm):
Cotton leaf discs were placed on agar in a 24-well microtiter plate and sprayed with test solutions at an application rate of 200 ppm. After drying, the leaf discs were infested with 5 L1 larvae. The samples were checked for mortality, feeding behavior, and growth regulation 3 days after treatment (DAT).

Heliothis virescens = Heliothis virescens egg / artificial diet test; details: 96 h, application rate 200 ppm (concentration in well 18 ppm), eggs 0-24 h old on artificial diet, 4 days, egg mortality, larval mortality, growth regulation
Experimental: Heliothis Virescens (Tobacco Budworm):
Eggs (0-24 h old) were placed in 24-well microtiter plate on artificial diet and treated with test solutions at an application rate of 200 ppm (concentration in well 18 ppm) by pipetting. After an incubation period of 4 days, samples were checked for egg mortality, larval mortality, and growth regulation.

Plutella xylostella = Plutella xylostella artificial diet test; details: 144 h, application rate 200 ppm (concentration in well 18 ppm), L2 larvae, 6 days, larval mortality, growth regulation
Experimental: Plutella Xylostella (Diamond Back Moth):
24-well microtiter plate (MTP) with artificial diet was treated with test solutions at an application rate of 200 ppm (concentration in well 18 ppm) by pipetting. After drying, the MTP's were infested with L2 larvae (7-12 per well). After an incubation period of 6 days, samples were checked for larval mortality and growth regulation.

Diabrotica balteata = Diabrotica balteata artificial diet test; details: 120 h, application rate 200 ppm (concentration in well 18 ppm), L2 larvae, 5 days, larval mortality, growth regulation
Experimental: Diabrotica Balteata (Corn Root Worm):
A 24-well microtiter plate (MTP) with artificial diet was treated with test solutions at an application rate of 200 ppm (concentration in well 18 ppm) by pipetting. After drying, the MTP's were infested with L2 larvae (6-10 per well). After an incubation period of 5 days, samples were checked for larval mortality and growth regulation.

Tetranychus urticae = Tetranychus urticae bean leaf disc spray test; details: foliar, 192 h, application rate 200 ppm, sprayed bean leaf discs, mite populations of mixed ages, 8 days, egg, larval and adult mortality
Source text: Tetranychus Urticae (Two-Spotted Spider Mite):
Bean leaf discs on agar in 24-well microtiter plates were sprayed with test solutions at an application rate of 200 ppm. After drying, the leaf discs are infested with mite populations of mixed ages. 8 days later, discs are checked for egg mortality, larval mortality, and adult mortality.

Thrips tabaci = Thrips tabaci sunflower leaf disc spray test; details: foliar, 168 h, application rate 200 ppm, sprayed sunflower leaf discs, population of mixed ages, 7 days, mortality
Experimental: Thrips Tabaci (Onion Thrips):
Sunflower leaf discs were placed on agar in a 24-well microtiter plate and sprayed with test solutions at an application rate of 200 ppm. […] After an incubation period of 7 days, samples were checked for mortality.

Measured: pest or weed control at 200 ppm

Cc1cc(C2=NOC(c3cc(Cl)cc(Cl)c3)(C(F)(F)F)C2(F)F)ccc1C(=O)NCc1ccccn1 (centres unmarked) [C1, 4-[5-(3,5-dichloro-phenyl)-4,4-difluoro-5-trifluoromethyl-4,5-dihydro-isoxazol-3-yl]-2-methyl-N-pyridin-2-ylmethyl-benzamide]
not listed: Thrips tabaci
≥ 80%: all other assays above

CCCCNC(=O)c1ccc(C2=NOC(c3cc(Cl)cc(Cl)c3)(C(F)(F)F)C2Br)c2ccccc12 (centres unmarked) [F3]
≥ 80%: Spodoptera littoralis | Heliothis virescens | Plutella xylostella | Thrips tabaci

O=C(NCc1ccccc1)c1ccc(C2=NOC(c3cc(Cl)cc(Cl)c3)(C(F)(F)F)C2Br)c2ccccc12 (centres unmarked) [F8]
not listed: Tetranychus urticae
≥ 80%: all other assays above

CCNC(=O)c1ccc(C2=NOC(c3cc(Cl)cc(Cl)c3)(C(F)(F)F)C2Cl)cc1C (centres unmarked) [B3]
≥ 80%: all assays above

CCCCNC(=O)c1ccc(C2=NOC(c3cc(Cl)cc(Cl)c3)(C(F)(F)F)C2Br)cc1C (centres unmarked) [A1, 4-[4-bromo-5-(3,5-dichloro-phenyl)-5-trifluoromethyl-4,5-dihydro-isoxazol-3-yl]-N-butyl-2-methyl-benzamide]
not listed: Thrips tabaci
≥ 80%: all other assays above

CCCCNC(=O)c1ccc(C2=NOC(c3cc(Cl)cc(Cl)c3)(C(F)(F)F)C2Cl)cc1C (centres unmarked) [B1]
≥ 80%: all assays above

CCC(C)NC(=O)c1ccc(C2=NOC(c3cc(Cl)cc(Cl)c3)(C(F)(F)F)C2Cl)cc1C (centres unmarked) [B6]
≥ 80%: all assays above

Cc1cc(C2=NOC(c3cc(Cl)cc(Cl)c3)(C(F)(F)F)C2Br)ccc1C(=O)NC1C[S+]([O-])C1 (single isomer, unassigned) [A25, 4-[4-bromo-5-(3,5-dichloro-phenyl)-5-trifluoromethyl-4,5-dihydro-isoxazol-3-yl]-2-methyl-N-(1-oxo-thietan-3-yl)-benzamide]
≥ 80%: Diabrotica balteata

CCCCNC(=O)c1ccc(C2=NOC(c3cc(Cl)cc(Cl)c3)(C(F)(F)F)C2C)cc1C (centres unmarked) [E1, N-butyl-4-[5-(3,5-dichloro-phenyl)-4-methyl-5-trifluoromethyl-4,5-dihydro-isoxazol-3-yl]-2-methyl-benzamide]
≥ 80%: all assays above

Cc1cc(C2=NOC(c3cc(Cl)cc(Cl)c3)(C(F)(F)F)C2Cl)ccc1C(=O)NC1CCC1 (centres unmarked) [B23]
≥ 80%: all assays above

CSC1C(c2ccc(C(=O)NC3CSC3)c(C)c2)=NOC1(c1cc(Cl)cc(Cl)c1)C(F)(F)F (centres unmarked) [D3, 4-[5-(3,5-dichloro-phenyl)-4-methylsulfanyl-5-trifluoromethyl-4,5-dihydro-isoxazol-3-yl]-2-methyl-N-thietan-3-yl-benzamide]
not listed: Thrips tabaci
≥ 80%: all other assays above

Cc1cc(C2=NOC(c3cc(Cl)cc(Cl)c3)(C(F)(F)F)C2Cl)ccc1C(=O)NC1CSC1 (centres unmarked) [B21]
≥ 80%: all assays above

Cc1cc(C2=NOC(c3cc(Cl)cc(Cl)c3)(C(F)(F)F)C2Cl)ccc1C(=O)Nc1cccc(F)c1 (centres unmarked) [B14]
≥ 80%: Spodoptera littoralis | Heliothis virescens | Plutella xylostella

Cc1cc(C2=NOC(c3cc(Cl)cc(Cl)c3)(C(F)(F)F)C2S(C)(=O)=O)ccc1C(=O)NC1CSC1 (centres unmarked) [D4, 4-[5-(3,5-dichloro-phenyl)-4-methylsulfonyl-5-trifluoromethyl-4,5-dihydro-isoxazol-3-yl]-2-methyl-N-thietan-3-yl-benzamide]
≥ 80%: Heliothis virescens | Tetranychus urticae

CCCCNC(=O)c1ccc(C2=NOC(c3cc(Cl)cc(Cl)c3)(C(F)(F)F)C2S(C)(=O)=O)cc1C (centres unmarked) [D2, N-butyl-4-[5-(3,5-dichloro-phenyl)-4-methylsulfonyl-5-trifluoromethyl-4,5-dihydro-isoxazol-3-yl]-2-methyl-benzamide]
≥ 80%: Spodoptera littoralis | Plutella xylostella

Cc1cc(C2=NOC(c3cc(Cl)cc(Cl)c3)(C(F)(F)F)C2C)ccc1C(=O)NC1CSC1 (centres unmarked) [E2, 4-[5-(3,5-dichloro-phenyl)-4-methyl-5-trifluoromethyl-4,5-dihydro-isoxazol-3-yl]-2-methyl-N-thietan-3-yl-benzamide]
≥ 80%: all assays above

CCNC(=O)c1ccc(C2=NOC(c3cc(Cl)cc(Cl)c3)(C(F)(F)F)C2Br)c2ccccc12 (centres unmarked) [F2]
≥ 80%: Diabrotica balteata

CCCCNC(=O)c1ccc(C2=NOC(c3cc(Cl)cc(Cl)c3)(C(F)(F)F)C2SC)cc1C (centres unmarked) [D1, N-butyl-4-[5-(3,5-dichloro-phenyl)-4-methylsulfanyl-5-trifluoromethyl-4,5-dihydro-isoxazol-3-yl]-2-methyl-benzamide]
≥ 80%: Spodoptera littoralis | Heliothis virescens | Plutella xylostella | Diabrotica balteata

O=C(Nc1cccc(F)c1)c1ccc(C2=NOC(c3cc(Cl)cc(Cl)c3)(C(F)(F)F)C2Br)c2ccccc12 (centres unmarked) [F14]
not listed: Tetranychus urticae
≥ 80%: all other assays above

CCC(C)NC(=O)c1ccc(C2=NOC(c3cc(Cl)cc(Cl)c3)(C(F)(F)F)C2Br)c2ccccc12 (centres unmarked) [F6]
not listed: Tetranychus urticae
≥ 80%: all other assays above
